Assay results as given in US7897602B2, “Indolinone compounds as kinase inhibitors” (Development Center for Biotechnology, priority 2009, dated 2011).

What was measured:
Type in all cases: biochemical
Aurora A kinase = target: T1, Aurora A kinase (Homo sapiens, UniProt O14965); assay: Aurora A kinase assay ([γ-33P]ATP, CHOCKtide substrate); conditions: for inhibition at 1 µM: 1.0 μM test compound
T1 construct: purchased Upstate
T1 sequence (O14965 1-403): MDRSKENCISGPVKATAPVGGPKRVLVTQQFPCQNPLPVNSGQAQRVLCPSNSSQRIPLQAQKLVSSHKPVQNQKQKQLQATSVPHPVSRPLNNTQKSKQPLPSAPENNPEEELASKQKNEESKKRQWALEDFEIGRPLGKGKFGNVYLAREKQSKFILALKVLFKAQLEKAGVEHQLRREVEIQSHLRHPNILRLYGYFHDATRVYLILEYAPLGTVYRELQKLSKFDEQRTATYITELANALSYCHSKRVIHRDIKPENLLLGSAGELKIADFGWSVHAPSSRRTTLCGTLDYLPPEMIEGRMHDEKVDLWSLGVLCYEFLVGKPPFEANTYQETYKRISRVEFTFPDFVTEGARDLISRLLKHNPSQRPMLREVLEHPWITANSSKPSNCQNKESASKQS
How it was run: (§1)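 Recombinant Aurora A (1 ng) or Aurora B (2.5 ng) incubated with test compound, CHOCKtide (1 μg) and [γ-33P]ATP/ATP at 10 μM (Aurora A) or 40 μM (Aurora B), 30 min at 33 °C. Stopped with phosphoric acid; filter-bound 33P counted; IC50 = half-maximal inhibition.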

Aurora B kinase = target: T2, Aurora B kinase (Homo sapiens, UniProt Q96GD4); assay: Aurora B kinase assay ([γ-33P]ATP, CHOCKtide substrate); conditions: for inhibition at 1 µM: 1.0 μM test compound
T2 construct: purchased Cell signaling
T2 sequence (Q96GD4 whole entry): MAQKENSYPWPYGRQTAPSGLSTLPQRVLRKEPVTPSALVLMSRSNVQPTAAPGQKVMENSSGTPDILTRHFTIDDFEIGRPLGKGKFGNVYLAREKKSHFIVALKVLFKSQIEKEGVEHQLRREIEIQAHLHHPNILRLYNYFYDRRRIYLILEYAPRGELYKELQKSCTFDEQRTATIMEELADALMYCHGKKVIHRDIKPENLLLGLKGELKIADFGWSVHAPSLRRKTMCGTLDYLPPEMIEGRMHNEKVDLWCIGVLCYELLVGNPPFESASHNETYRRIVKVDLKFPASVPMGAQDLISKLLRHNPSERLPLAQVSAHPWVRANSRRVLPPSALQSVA
How it was run: as §1

PDGFR-β kinase = target: T3, PDGFR-β kinase (Homo sapiens, UniProt P09619); assay: PDGFR-β kinase assay (33P incorporation into Poly(Glu-Tyr)); conditions: 500 nM test compound
T3 construct: recombinant N-terminal 6×His-tagged PDGFR-β kinase domain construct expressed by baculovirus; 6xHis (N); made in house
T3 sequence (P09619 600-962 limits assumed): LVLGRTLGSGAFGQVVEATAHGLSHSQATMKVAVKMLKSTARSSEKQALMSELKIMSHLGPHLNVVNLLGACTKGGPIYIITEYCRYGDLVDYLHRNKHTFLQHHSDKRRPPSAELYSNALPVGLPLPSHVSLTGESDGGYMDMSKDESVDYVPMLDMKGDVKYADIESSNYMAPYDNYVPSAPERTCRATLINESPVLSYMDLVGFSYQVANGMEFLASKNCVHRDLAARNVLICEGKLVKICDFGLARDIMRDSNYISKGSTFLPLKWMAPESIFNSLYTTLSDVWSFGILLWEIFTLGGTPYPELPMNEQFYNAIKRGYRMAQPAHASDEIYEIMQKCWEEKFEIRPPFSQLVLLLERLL
Method: Inhibition of PDGFR-β kinase activity by compounds disclosed herein was quantified by measuring the amount of [^33P] incorporated into the substrate in the presence of a test compound. Briefly, a reaction mixture of 25 μL final volume containing 55 ng of PDGFR-β kinase (obtained by purifying recombinant N-terminal 6×His-tagged PDGFR-β kinase domain construct expressed by baculovirus), 2.5 μg of the substrate (Poly (Glu-Tyr, 4:1, Sigma)), kinase reaction buffer (20 mM MOPS pH 7.0, 1 mM EDTA, 5% glycerol, 0.01% Brij-35, 0.1% β-mercaptoethanol, 1 mg/mL BSA, 2 mM MnCl2, 30 μM ATP, 0.1 μCi per well [^33P]-γ-ATP (2,500-3,000 Ci/mmol)), and a test compound (500 nM, diluted with 4% DMSO) or DMSO (as the control) was incubated at 30° C. for 30 minutes. The reaction was stopped by adding 5 μL of 3% phosphoric acid solution. The resultant reaction solution was then harvested onto a filter plate (UniFilter-96 GF/B, PerkinElmer), washed 20 times for 5 min with d.d. H2O, and followed by the addition of 30 μL of MicroScint™-20 Cocktail (PerkinElmer). The plate was then sealed and counted using a TopCount scintillation detector (PerkinElmer). The percentage of inhibition rate of the test compound was calculated by dividing the retained radioactivity of the test sample with the retained radioactivity of the control sample and shown in Table 3.

| inhibition at 1 µM (Aurora A kinase) [%] | inhibition at 1 µM (Aurora B kinase) [%] | inhibition at 0.5 µM (PDGFR-β kinase) [%] | IC50 (Aurora A kinase) [nM] | IC50 (Aurora B kinase) [nM] | Structure (SMILES) |
| --- | --- | --- | --- | --- | --- |
| 19.3 | 15.1 | 6.6 | – | – | CCOC(=O)CCc1c(/C=C2\C(=O)Nc3ccc(NC(=O)c4ccc(F)cc4)cc32)[nH]c2c1C(=O)CCC2 [DCB-70074, (Z)-5-(4-fluorobenzamido)-3-((3-(3-ethoxy-3-oxopropyl)-4-oxo-4,5,6,7-tetrahydro-1H-indol-2-yl)methylene)indolin-2-one] |
| 92.4 | 55.8 | 94.1 | 86.3 | 456 | O=C(O)CCc1c(/C=C2\C(=O)Nc3cc(-c4ccc(O)cc4)ccc32)[nH]c2c1C(=O)CCC2 [DCB-70075, (Z)-6-(4-hydroxyphenyl)-3-((3-carboxyethyl-4-oxo-4,5,6,7-tetrahydro-1H-indol-2-yl)methylene)indolin-2-one] |
| 40.7 | 7.4 | 26.9 | – | – | O=C(O)CCc1c(/C=C2\C(=O)Nc3ccc(NC(=O)c4ccc(F)cc4)cc32)[nH]c2c1C(=O)CCC2 [DCB-70076, (Z)-5-(4-fluorobenzamido)-3-((3-carboxyethyl-4-oxo-4,5,6,7-tetrahydro-1H-indol-2-yl)methylene)indolin-2-one] |
| 57 | 47.5 | 66.3 | – | – | CCOC(=O)CCc1c(/C=C2\C(=O)Nc3cc(-c4ccc(O)c(O)c4)ccc32)[nH]c2c1C(=O)CCC2 [DCB-70077, (Z)-6-(3,4-dihydroxyphenyl)-3-((3-(3-ethoxy-3-oxopropyl)-4-oxo-4,5,6,7-tetrahydro-1H-indol-2-yl)methylene)indolin-2-one] |
| 91.6 | 63.4 | 85 | 46.1 | 438 | O=C(O)CCc1c(/C=C2\C(=O)Nc3cc(-c4ccc(O)c(O)c4)ccc32)[nH]c2c1C(=O)CCC2 [DCB-70078, (Z)-6-(3,4-dihydroxyphenyl)-3-((3-carboxyethyl-4-oxo-4,5,6,7-tetrahydro-1H-indol-2-yl)methylene)indolin-2-one] |
| 8.8 | 16 | 9.6 | – | – | CCOC(=O)CCc1c(/C=C2\C(=O)Nc3cc(-c4cc5ccccc5s4)ccc32)[nH]c2c1C(=O)CCC2 [DCB-70079, (Z)-6-(benzo[b]thiophen-2-yl)-3-((3-(3-ethoxy-3-oxopropyl)-4-oxo-4,5,6,7-tetrahydro-1H-indol-2-yl)methylene)indolin-2-one] |
| 40.3 | 35.2 | 56.7 | – | – | O=C(O)CCc1c(/C=C2\C(=O)Nc3cc(-c4cc5ccccc5s4)ccc32)[nH]c2c1C(=O)CCC2 [DCB-70080, (Z)-6-(benzo[b]thiophen-2-yl)-3-((3-carboxyethyl-4-oxo-4,5,6,7-tetrahydro-1H-indol-2-yl)methylene)indolin-2-one] |
| 27.7 | 30.6 | 25.2 | – | – | CCOC(=O)CCc1c(/C=C2\C(=O)Nc3cc(-c4ccc(O)c(OC)c4)ccc32)[nH]c2c1C(=O)CCC2 [DCB-70081, (Z)-6-(4-hydroxy-3-methoxyphenyl)-3-((3-(3-ethoxy-3-oxopropyl)-4-oxo-4,5,6,7-tetrahydro-1H-indol-2-yl)methylene)indolin-2-one] |
| 81.7 | 47.1 | 41.4 | 224 | 2240 | COc1cc(-c2ccc3c(c2)NC(=O)/C3=C\c2[nH]c3c(c2CCC(=O)O)C(=O)CCC3)ccc1O [DCB-70082, (Z)-6-(4-hydroxy-3-methoxyphenyl)-3-((3-carboxyethyl-4-oxo-4,5,6,7-tetrahydro-1H-indol-2-yl)methylene)indolin-2-one] |
| 13.2 | 12.8 | 11.6 | – | – | CCOC(=O)CCc1c(C=C2C(=S)Nc3ccccc32)[nH]c2c1C(=O)CCC2 [DCB-70083, 3-((3-(3-ethoxy-3-oxopropyl)-4-oxo-4,5,6,7-tetrahydro-1H-indol-2-yl)methylene)indolin-2-thione] |
| 10.9 | 17.9 | 6 | – | – | O=C(O)CCc1c(C=C2C(=S)Nc3ccccc32)[nH]c2c1C(=O)CCC2 [DCB-70084, 3-((3-carboxyethyl-4-oxo-4,5,6,7-tetrahydro-1H-indol-2-yl)methylene)indolin-2-thione] |
| 11.2 | 10.7 | 16.5 | – | – | CCOC(=O)CCc1c(C=C2C(=S)Nc3cc(Br)ccc32)[nH]c2c1C(=O)CCC2 [DCB-70085, 6-bromo-3-((3-(3-ethoxy-3-oxopropyl)-4-oxo-4,5,6,7-tetrahydro-1H-indol-2-yl)methylene)indolin-2-thione] |
| 5.8 | 17.8 | 12.8 | – | – | O=C(O)CCc1c(C=C2C(=S)Nc3cc(Br)ccc32)[nH]c2c1C(=O)CCC2 [DCB-70086, 6-bromo-3-((3-carboxyethyl-4-oxo-4,5,6,7-tetrahydro-1H-indol-2-yl)methylene)indolin-2-thione] |
| 99.7 | 66.2 | 7.8 | 7.3 | 441 | O=C(O)CCc1c(/C=C2\C(=O)Nc3ccc(S(=O)(=O)N4CCCC4)cc32)[nH]c2c1C(=O)CCC2 [DCB-70087, (Z)-5-(pyrrolidin-1-ylsulfonyl)-3-((3-carboxyethyl-4-oxo-4,5,6,7-tetrahydro-1H-indol-2-yl)methylene)indolin-2-one] |
| 99.3 | 48.8 | 1 | 28.8 | 1870 | O=C(O)CCc1c(/C=C2\C(=O)Nc3ccc(S(=O)(=O)N4CCOCC4)cc32)[nH]c2c1C(=O)CCC2 [DCB-70088, (Z)-5-morpholinosulfonyl-3-((3-carboxyethyl-4-oxo-4,5,6,7-tetrahydro-1H-indol-2-yl)methylene)indolin-2-one] |
| 7.6 | 10.8 | 13 | – | – | CCOC(=O)CCc1c(/C=C2\C(=O)Nc3ccc(NC(=O)Nc4ccc(C)cc4)cc32)[nH]c2c1C(=O)CCC2 [DCB-70091, (Z)-5-(3-p-tolylureido)-3-((3-(3-ethoxy-3-oxopropyl)-4-oxo-4,5,6,7-tetrahydro-1H-indol-2-yl)methylene)indolin-2-one] |
| 9.4 | 9.9 | 14.1 | – | – | CCOC(=O)CCc1c(/C=C2\C(=O)Nc3ccc(NC(=O)Nc4ccc(OC)cc4)cc32)[nH]c2c1C(=O)CCC2 [DCB-70092, (Z)-5-(3-(4-methoxyphenyl)ureido)-3-((3-(3-ethoxy-3-oxopropyl)-4-oxo-4,5,6,7-tetrahydro-1H-indol-2-yl)methylene)indolin-2-one] |
| 70.5 | 14.7 | 40 | – | – | Cc1ccc(NC(=O)Nc2ccc3c(c2)/C(=C/c2[nH]c4c(c2CCC(=O)O)C(=O)CCC4)C(=O)N3)cc1 [DCB-70093, (Z)-5-(3-p-tolylureido)-3-((3-carboxyethyl-4-oxo-4,5,6,7-tetrahydro-1H-indol-2-yl)methylene)indolin-2-one] |
| 75.2 | 15.5 | 48.5 | – | – | COc1ccc(NC(=O)Nc2ccc3c(c2)/C(=C/c2[nH]c4c(c2CCC(=O)O)C(=O)CCC4)C(=O)N3)cc1 [DCB-70094, (Z)-5-(3-(4-methoxyphenyl)ureido)-3-((3-carboxyethyl-4-oxo-4,5,6,7-tetrahydro-1H-indol-2-yl)methylene)indolin-2-one] |
| 94.3 | 34.1 | 36.2 | 61.2 | – | NS(=O)(=O)c1ccc2c(c1)/C(=C/c1[nH]c3c(c1CCC(=O)O)C(=O)CCC3)C(=O)N2 [DCB-70095, (Z)-5-sulfamoyl-3-((3-carboxyethyl-4-oxo-4,5,6,7-tetrahydro-1H-indol-2-yl)methylene)indolin-2-one] |
| 38.6 | 15.1 | 14.9 | – | – | CCOC(=O)CCc1c(/C=C2\C(=O)Nc3ccc(NC(=O)c4ccccc4)cc32)[nH]c2c1C(=O)CCC2 [DCB-70096, (Z)-5-benazmido-3-((3-(3-ethoxy-3-oxopropyl)-4-oxo-4,5,6,7-tetrahydro-1H-indol-2-yl)methylene)indolin-2-one] |
